Consider 1 compound from US5885994A, “Tetrahydroquinoxaline dopamine D4 receptor antagonists” (Warner-Lambert Company, priority 1998, dated 1999).

In one assay the target is T1, human D4.2 receptor (Homo sapiens, UniProt P21917, DEL265-296).
T1 construct: expressed in transfected cells; host or cells: CHO K1 cells
T1 sequence (P21917 with tags, fused parts or gaps DEL265-296): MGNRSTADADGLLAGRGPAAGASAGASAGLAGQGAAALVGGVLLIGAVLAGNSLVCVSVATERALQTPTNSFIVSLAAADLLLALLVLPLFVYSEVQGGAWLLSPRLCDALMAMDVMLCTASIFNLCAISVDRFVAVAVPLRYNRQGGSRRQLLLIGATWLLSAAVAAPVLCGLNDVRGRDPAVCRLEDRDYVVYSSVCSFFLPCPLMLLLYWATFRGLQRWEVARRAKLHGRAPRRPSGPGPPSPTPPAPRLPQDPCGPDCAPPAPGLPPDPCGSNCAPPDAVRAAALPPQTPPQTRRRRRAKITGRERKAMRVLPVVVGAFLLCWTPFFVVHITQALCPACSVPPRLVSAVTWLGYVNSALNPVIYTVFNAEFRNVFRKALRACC
The experiment in a line: Inhibition of [3H]spiperone binding to human dopamine D4.2 receptors. The following applies: human D4.2, CHO K1 membranes. The source says:
A cell line expressing human dopamine D2 (Long form) receptors was purchased from Oregon Health Sciences University, Portland, Oreg. The D2 receptor cDNA was subcloned into an expression vector, pRc/CMV. The plasmids were transfected by electroporation into CHO K1 cells. A single stable transfectant, resistant to the antibiotic 418, was isolated and selected for use in the binding studies. For D4 binding, CHO K1 cells stably transfected to express the human recombinant dopamine D4.2 receptor subtype, as described by Shih, et al., "The expression and functional characterization of human dopamine D4.2 receptor in CHO K1 cells," Soc. Neurosci., 1995;21(Part 1):621.
CHO K1 cells expressing either human D2 and D4.2 receptors were grown in 162 cm^2 culture flasks in F12 medium (Gibco Laboratories, Grand Island, N.Y.) supplemented with 10% fetal bovine serum (FBS, Hyclone, Logan, Utah) in an atmosphere of 5% CO2 /95% air at 37° C. Cells were grown until confluent, after which growth medium was removed and replaced with 0.02% ethylene diamine tetracetate (EDTA) in a phosphate-buffered saline solution (Sigma Chemical Co., St. Louis, Mo.) and scraped from the flasks. The cells were centrifuged at about 1000×g for 10 minutes at […] and then resuspended in TEM buffer (25 mM Tris-HCl, pH 7.4, 5 mM EDTA, and 6 mM MgCl2) for D2 or the D4.2 buffer (50 mM Tris-HCl, pH 7.4, 5 mM EDTA, 1.5 mM CaCl2, 5 mM KCl, and 120 mM NaCl) and homogenized. The membranes were pelleted by centrifugation at 20,000×g at […] for 20 minutes. Then the pellets were resuspended in appropriate buffer at 1 mL/flask and stored at -70° C. until used in the receptor binding assay.
Receptor Binding Assays: D2,D4.2 Dopamine Receptors
After 60 minutes incubation at 25° C., the incubations were terminated by rapid filtration through Whatmann F/B lass fibre filters (soaked for 1 hour in 0.5% polyethylenimine) on a cell harvester, with three washes of 1 mL ice-cold buffer. Individual filter disks containing the bound ligand were placed in counting vials with 4 mL of scintillation fluid (Ready Gel, Beckman Instrument Inc., Fullerton, Calif.) and then counted in a Beckman LS-6800 liquid scintillation counter at an efficiency of 45%. Nonspecific binding was defined in presence of 1 mM of haloperidol.
Saturation and competition binding data were analyzed using an iterative nonlinear least-square curve-fitting Ligand program. In competition experiments, apparent Ki values were calculated from IC50 values by method of Cheng and Prusoff, "Relationship between the inhibition constant (Ki) and the concentration of inhibitor which causes 50% inhibition (IC50) of an enzymatic reaction," Biochem. Pharmacol., 1973;22:3099-3108. Experimental compounds were made up as stock solutions in dimethyl sulfoxide (DMSO). […] Each observation was carried out in triplicate. To allow these calculations, Ki values were measured for the interaction of various ligands with the receptor. […]

Another assay deals with T2, human DA D4.2 receptor (Homo sapiens, UniProt P21917, DEL265-296).
T2 construct: expressed in transfected cells
T2 sequence (P21917 with tags, fused parts or gaps DEL265-296): T1 sequence (P21917 with tags, fused parts or gaps DEL265-296)
The assay is described as follows: [3H]Thymidine uptake assay (block of quinpirole stimulation in CHO pro-5 cells transfected with human DA D4.2 receptor). It counts as cell-based. The following applies: human D4.2, quinpirole-stimulated uptake. Here is the method:
Compounds were tested for their ability to bind to dopamine (DA) receptors as measured by their inhibition of [^3 H]spiperone binding to the human D2, and D4.2 receptors (Pugsley, et al., 1995). The ability of test compounds to block the stimulation of [^3 H]thymidine uptake in CHO pro-5 cells transfected with human DA D4.2 receptor cDNA caused by the DA agonist quinpirole was employed as an in vitro measure of DA receptor antagonist activity (Pugsley, et al., 1995). The effects of compounds on synthesis rates of rat brain catecholamines were estimated by measuring the accumulation of [3-(3,4-dihydroxyphenyl)-L-alanine (DOPA) after administration of the L-aromatic amino acid decarboxylase inhibitor, NSD 1015 (Pugsley, et al., 1995).
[^3 H]Thymidine Uptake Assay
The effects of test compounds on [^3 H]thymidine uptake were carried out essentially as described by Pugsley, et al., 1995. CHO p-5 cells transfected with human D4.2 cDNA were seeded into 96-well plates at a density of about 5000 cells/well and were grown at 37° C. in a minimum essential medium (aMEM, Gibco) with 10% calf serum for 2 days. The wells were then rinsed three times with serum-free media. Fresh media ([…]) was added along with […] of test compound in water or vehicle alone. Eight wells of each plate received […] of aMEM with 10% fetal calf serum. After culture for 16 to 17 hours, [3H]thymidine ([…]) was added for 4 hours. The cells were trypsinized and harvested onto filter mats with a 96-well Brandel cell harvester. The filters were counted in a Beta-Plate scintillation counter.

Consider `Cc1ccc(N2CCN(Cc3ccc4c(c3)NCCN4)CC2)cc1C` [Example 2, 6-[4-(3,4-Dimethylphenyl)piperazin-1-ylmethyl]-1,2,3,4-tetrahydroquinoxaline], for which the IC50 on human D4.2 receptor stood at 2.8 nM; on human DA D4.2 receptor, 1.6 nM.

What is called IC50 is the point on the concentration scale where inhibition reaches its midpoint. Low values mean inhibition by little substance, high ones a need for much substance.
